We go through 1 compound from PubChem BioAssay AID1438 (Sanford-Burnham Center for Chemical Genomics, 2008).

Structures are written as SMILES.

For the assay, the target named is Runt-related transcription factor 1 (Homo sapiens) + Core-binding factor subunit beta (Homo sapiens) (UniProt Q01196+Q13951). As to the kind of experiment: inhibitors of RUNX1 Runt–CBFb-SMMHC binding, biochemical, TR-FRET (AID 1438). As to conditions: TR-FRET Runt domain–CBFb-SMMHC binding.
Runt-related transcription factor 1 (Homo sapiens) + Core-binding factor subunit beta (Homo sapiens), sequence (Q01196 whole entry, looked up, the tested form may be a part): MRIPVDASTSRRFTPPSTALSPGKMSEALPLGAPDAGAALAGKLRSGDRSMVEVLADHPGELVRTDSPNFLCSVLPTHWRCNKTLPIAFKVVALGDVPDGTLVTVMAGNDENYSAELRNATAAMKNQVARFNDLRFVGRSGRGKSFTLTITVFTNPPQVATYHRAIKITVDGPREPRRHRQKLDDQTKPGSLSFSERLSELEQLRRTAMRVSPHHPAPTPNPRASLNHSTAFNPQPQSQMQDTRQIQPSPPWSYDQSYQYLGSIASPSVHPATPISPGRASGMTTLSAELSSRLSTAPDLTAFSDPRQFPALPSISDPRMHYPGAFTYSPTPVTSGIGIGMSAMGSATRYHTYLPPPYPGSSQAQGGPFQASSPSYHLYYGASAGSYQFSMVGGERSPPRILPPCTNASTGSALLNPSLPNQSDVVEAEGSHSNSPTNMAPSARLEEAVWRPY
Runt-related transcription factor 1 (Homo sapiens) + Core-binding factor subunit beta (Homo sapiens), sequence (Q13951 whole entry, looked up, the tested form may be a part): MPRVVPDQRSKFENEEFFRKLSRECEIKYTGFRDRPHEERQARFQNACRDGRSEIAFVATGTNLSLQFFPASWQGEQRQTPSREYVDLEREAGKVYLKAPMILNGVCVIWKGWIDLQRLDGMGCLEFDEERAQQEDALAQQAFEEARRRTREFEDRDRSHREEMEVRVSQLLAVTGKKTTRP

`CN1CCc2cccc3c2[C@@H]1Cc1ccc(O)c(O)c1-3`: the concentration for half-maximal inhibition (IC50) was 7.12 µM.
